# Experimental data reported in publication PMC7156458, “Synthetic biology based construction of biological activity-related library of fungal decalin-containing diterpenoid pyrones” (Nature Communications, 2020).
# Values joined by “and” are separate entries in the source; they are usually repeats but may differ in a detail not shown here. Equal values may be shown once. Read-outs that look alike come from different tables or passages of the source.
# Key:
# l(2)mbn cells = test: cytotoxicity in Drosophila l(2)mbn cells; format: cell-based; details: for Luminescence Raw1: replicate 1; for Luminescence Raw2: replicate 2; for IC50: Drosophila melanogaster, cytotoxicity
# Method: (§1) We screened the DDPs on the Drosophila assay system for cytotoxicity, inhibitory activity of innate immune signalling and insecticidal activity. The cytotoxicity of the DDPs was evaluated using two cell lines, embryonic macrophage-derived DL1 cells[58]–[60] and larval blood cell-derived l(2)mbn cells, and their IC50 values are listed in Supplementary Table 23.
# [1] = cytotoxicity in Drosophila l(2)mbn cells; format: cell-based; details: Drosophila, l(2)mbn cells (larval blood cell-derived)
# Method: as §1
# DL1 cells = test: cytotoxicity in Drosophila DL1 cells; format: cell-based; details: DL1 cells; for IC50: Drosophila melanogaster, cytotoxicity
# Method: as §1
# [2] = cytotoxicity in Drosophila DL1 cells; format: cell-based; details: Drosophila, DL1 cells (embryonic macrophage-derived), DL1 cells
# Method: as §1
# MAGI cells = test: cytotoxicity in the anti-HIV assay (CC50); format: cell-based; details: for Cytotoxicity: single determinations
# MCF-7 cells = test: cell cytotoxic effects against MCF-7 cells (72 h), A490; format: cell-based, human; details: for viability at 0.1 µM / viability at 1 µM / viability at 10 µM: Homo sapiens, MCF7, 72 h, read-out: A490 (control =1) ave; for viability at 0.1 µM / viability at 1 µM / viability at 10 µM / A490 ave: MCF-7, 72 h
# [3] = average of two replicates, read-out: IC50 Average
# [4] = replicate 1, read-out: IC50 (1)
# [5] = replicate 2, read-out: IC50 (2)
# [6] = replicate 1, relative to DMSO 1%, read-out: % viability, viability 1
# [7] = replicate 2, relative to DMSO 1%, read-out: % viability, viability 2
# [8] = 0.1 µM (DMSO 0.002%), control 1.064
# [9] = 1 µM (DMSO 0.02%), control 1.104
# [10] = 10 µM (DMSO 0.2%), control 1.049
smiles,measurement,setting,value
C=C1CCC2C3(C)CC(C=C(C)C)OC3CCC2(C)C1Cc1c(OC)oc(C)c(C)c1=O (stereo not drawn) [Compound 23],Luminescence Raw1,l(2)mbn cells; 0.04 µM,3121216
same,Luminescence Raw2,l(2)mbn cells; 0.04 µM,3467512
same,Luminescence Raw1,l(2)mbn cells; 0.2 µM,3228350
same,Luminescence Raw2,l(2)mbn cells; 0.2 µM,3607479
same,Luminescence Raw1,l(2)mbn cells; 1 µM,1147296
same,Luminescence Raw2,l(2)mbn cells; 1 µM,1863873
same,Luminescence Raw1,l(2)mbn cells; 4 µM,228513
same,Luminescence Raw2,l(2)mbn cells; 4 µM,234642
same,Luminescence Raw1,l(2)mbn cells; 10 µM,179837
same,Luminescence Raw2,l(2)mbn cells; 10 µM,176952
same,Luminescence Raw1,l(2)mbn cells; 20 µM,177313
same,Luminescence Raw2,l(2)mbn cells; 20 µM,164332
same,IC50,l(2)mbn cells; [3],1580 nM
same,IC50,"l(2)mbn cells; average±SEM, read-out: IC50",1580 ± 350 nM
same,IC50,l(2)mbn cells; [4],1230 nM
same,IC50,l(2)mbn cells; [5],1920 nM
same,viability at 0.04 µM,[1]; [6],122%
same,viability at 0.04 µM,[1]; [7],135%
same,viability at 0.2 µM,[1]; [6],126%
same,viability at 0.2 µM,[1]; [7],141%
same,viability at 1 µM,[1]; [6],44.7%
same,viability at 1 µM,[1]; [7],72.6%
same,viability at 4 µM,[1]; [6],8.9%
same,viability at 4 µM,[1]; [7],9.14%
same,viability at 10 µM,[1]; [6],7.01%
same,viability at 10 µM,[1]; [7],6.89%
same,viability at 20 µM,[1]; [6],6.91%
same,viability at 20 µM,[1]; [7],6.4%
same,Luminescence Raw1,"DL1 cells; 0.04 µM, replicate 1",1660895
same,Luminescence Raw2,"DL1 cells; 0.04 µM, replicate 2",2275454
same,Luminescence Raw1,"DL1 cells; 0.2 µM, replicate 1",438070
same,Luminescence Raw2,"DL1 cells; 0.2 µM, replicate 2",571485
same,Luminescence Raw1,"DL1 cells; 1 µM, replicate 1",158989
same,Luminescence Raw2,"DL1 cells; 1 µM, replicate 2",204060
same,Luminescence Raw1,"DL1 cells; 4 µM, replicate 1",165479
same,Luminescence Raw2,"DL1 cells; 4 µM, replicate 2",159710
same,Luminescence Raw1,"DL1 cells; 10 µM, replicate 1",101660
same,Luminescence Raw2,"DL1 cells; 10 µM, replicate 2",111756
same,Luminescence Raw1,"DL1 cells; 20 µM, replicate 1",173772
same,Luminescence Raw2,"DL1 cells; 20 µM, replicate 2",169085
same,IC50,DL1 cells; [3],130 nM
same,IC50,"DL1 cells; average±SEM, read-out: IC50",130 ± 40 nM
same,IC50,DL1 cells; [4],94 nM
same,IC50,DL1 cells; [5],167 nM
same,viability at 0.04 µM,[2]; [6],80.6%
same,viability at 0.04 µM,[2]; [7],110%
same,viability at 0.2 µM,[2]; [6],21.3%
same,viability at 0.2 µM,[2]; [7],27.7%
same,viability at 1 µM,[2]; [6],7.72%
same,viability at 1 µM,[2]; [7],9.91%
same,viability at 4 µM,[2]; [6],8.03%
same,viability at 4 µM,[2]; [7],7.75%
same,viability at 10 µM,[2]; [6],4.94%
same,viability at 10 µM,[2]; [7],5.43%
same,viability at 20 µM,[2]; [6],8.44%
same,viability at 20 µM,[2]; [7],8.21%
same,Cytotoxicity Avg.,MAGI cells; average of numeric determinations,5.617 µM
same,Cytotoxicity,MAGI cells,5.032 µM and 7.537 µM and 4.281 µM
same,cytotoxicity against the bulk of MCF-7 cells,MCF-7 cells,dose-dependent cytotoxicity
same,viability at 0.1 µM,MCF-7 cells; 0.1 µM (DMSO 0.002%),62.5%
same,viability at 1 µM,MCF-7 cells; 1 µM (DMSO 0.02%),21.6%
same,viability at 10 µM,MCF-7 cells; 10 µM (DMSO 0.2%),14.8%
same,A490 ave,MCF-7 cells; [8],0.664
same,A490 ave,MCF-7 cells; [9],0.239
same,A490 ave,MCF-7 cells; [10],0.155
C=C1CC[C@H]2[C@]3(C)C[C@H](C=C(C)C)O[C@H]3CC[C@]2(C)[C@@H]1Cc1c(OC)oc(CO)c(C)c1=O [Compound 18],Luminescence Raw1,l(2)mbn cells; 0.04 µM,2968023
same,Luminescence Raw2,l(2)mbn cells; 0.04 µM,2468099
same,Luminescence Raw1,l(2)mbn cells; 0.2 µM,3357960
same,Luminescence Raw2,l(2)mbn cells; 0.2 µM,2956480
same,Luminescence Raw1,l(2)mbn cells; 1 µM,2768193
same,Luminescence Raw2,l(2)mbn cells; 1 µM,3359403
same,Luminescence Raw1,l(2)mbn cells; 4 µM,1663102
same,Luminescence Raw2,l(2)mbn cells; 4 µM,2355206
same,Luminescence Raw1,l(2)mbn cells; 10 µM,190041
same,Luminescence Raw2,l(2)mbn cells; 10 µM,205906
same,Luminescence Raw1,l(2)mbn cells; 20 µM,236915
same,Luminescence Raw2,l(2)mbn cells; 20 µM,213117
same,IC50,l(2)mbn cells; [3],6000 nM
same,IC50,"l(2)mbn cells; average±SEM, read-out: IC50",6000 ± 1090 nM
same,IC50,l(2)mbn cells; [4],4920 nM
same,IC50,l(2)mbn cells; [5],7090 nM
same,viability at 0.04 µM,[1]; [6],116%
same,viability at 0.04 µM,[1]; [7],96.2%
same,viability at 0.2 µM,[1]; [6],131%
same,viability at 0.2 µM,[1]; [7],115%
same,viability at 1 µM,[1]; [6],108%
same,viability at 1 µM,[1]; [7],131%
same,viability at 4 µM,[1]; [6],64.8%
same,viability at 4 µM,[1]; [7],91.8%
same,viability at 10 µM,[1]; [6],7.4%
same,viability at 10 µM,[1]; [7],8.02%
same,viability at 20 µM,[1]; [6],9.23%
same,viability at 20 µM,[1]; [7],8.3%
same,Luminescence Raw1,"DL1 cells; 0.04 µM, replicate 1",1968545
same,Luminescence Raw2,"DL1 cells; 0.04 µM, replicate 2",1896774
same,Luminescence Raw1,"DL1 cells; 0.2 µM, replicate 1",1171179
same,Luminescence Raw2,"DL1 cells; 0.2 µM, replicate 2",1320836
same,Luminescence Raw1,"DL1 cells; 1 µM, replicate 1",154319
same,Luminescence Raw2,"DL1 cells; 1 µM, replicate 2",146747
same,Luminescence Raw1,"DL1 cells; 4 µM, replicate 1",102038
same,Luminescence Raw2,"DL1 cells; 4 µM, replicate 2",104562
same,Luminescence Raw1,"DL1 cells; 10 µM, replicate 1",106725
same,Luminescence Raw2,"DL1 cells; 10 µM, replicate 2",129801
same,Luminescence Raw1,"DL1 cells; 20 µM, replicate 1",80404
same,Luminescence Raw2,"DL1 cells; 20 µM, replicate 2",106364
same,IC50,DL1 cells; [3],254 nM
same,IC50,"DL1 cells; average±SEM, read-out: IC50",250 ± 20 nM
same,IC50,DL1 cells; [4],236 nM
same,IC50,DL1 cells; [5],272 nM
same,viability at 0.04 µM,[2]; [6],95.6%
same,viability at 0.04 µM,[2]; [7],92.1%
same,viability at 0.2 µM,[2]; [6],56.9%
same,viability at 0.2 µM,[2]; [7],64.1%
same,viability at 1 µM,[2]; [6],7.49%
same,viability at 1 µM,[2]; [7],7.12%
same,viability at 4 µM,[2]; [6],4.95%
same,viability at 4 µM,[2]; [7],5.08%
same,viability at 10 µM,[2]; [6],5.18%
same,viability at 10 µM,[2]; [7],6.3%
same,viability at 20 µM,[2]; [6],3.9%
same,viability at 20 µM,[2]; [7],5.16%
same,Cytotoxicity,MAGI cells,>10 µM
same,cytotoxicity against the bulk of MCF-7 cells,MCF-7 cells,dose-dependent cytotoxicity
same,viability at 0.1 µM,MCF-7 cells; 0.1 µM (DMSO 0.002%),65.7%
same,viability at 1 µM,MCF-7 cells; 1 µM (DMSO 0.02%),26.3%
same,viability at 10 µM,MCF-7 cells; 10 µM (DMSO 0.2%),15%
same,A490 ave,MCF-7 cells; [8],0.699
same,A490 ave,MCF-7 cells; [9],0.290
same,A490 ave,MCF-7 cells; [10],0.158
